Reference: patent US20170127677A1, “Formulation of clomazone having reduced volatility” (BASF SE, priority 2014, published 2017)

Test: Volatility of clomazone from spray solution: glass tube at 25° C. with air suction, loss determined by GC
Assay type: physicochemical
Conditions: 24 h; for reduction of volatility of Clomazone by compound (B): Test experiment 5, clomazone WP 100 g/ha, component B 335 g/ha
Method: However, a preferred method for determining the volatility of the compounds contained in the compositions according to the present invention is carried out as follows: Glass tubes (internal diameter 23 mm) are immersed in a water bath at 25° C. In the bottom of each of the glass tubes 100 μl of spray solution (component A and B diluted in water at the concentration that a farmer would typically spray) are applied with a pipette. A tube is inserted in the glass tube. The ending of the inserted tube stays 25 mm above the bottom of the glass tube (i.e. the test sample). Along the inserted tube, the air contained in each individual glass tube is constantly suctioned at 250 L/h for the whole system. All glass tubes are separated from the lid by spacers which ensure the inlet of fresh air to the glass tubes. After short time the test sample is evaporated. The system is stopped according to a defined sampling period, preferably after 24 hours. The glass tubes are taken out and washed with THF. The washing solution is analyzed by GC for the compound of interest, e.g. clomazone. The loss of compound is calculated in % of the total amount of compound applied in the initial 100 μl sample. The reference test samples for the quantification of the initial applied Clomazone contain also THF. Each value is generated from 3 to 4 independent measurements. This method allows determining the relative volatility of a certain compound depending on the additional compounds present in a certain composition.
Non-encapsulated Clomazone (as WP formulation) was prepared at 100 g/ha with 200 L water/ha. Paraffinic oil, rapeseed oil methyl ester and the aromatic solvent were added at 335 g/ha, while Dimethenamid was added at 500 g/ha. For the solvents, an appropriate emulsifier system was added. The sample size was 100 μl. The volatility test was carried out at 25° C. and the operating time was 24 h.
Solvents typically used in crop protection agents were tested for comparative purposes. As comparison dimethenamid (dimethenamid P) was also tested, but differently from example 1, the test sample solution was prepared at 335 g/ha.CE3 was included again. Two controls were included in the experiment. For the solvents, an appropriate emulsifier system was added. The volatility test was carried out at 25° C., the operating time was 24 h. The sample size was 100 μl.
Various fatty acid amides were tested as additional components in herbicidal compositions with respect to the question if volatility of clomazone in such compositions is affected. For the solvents, an appropriate emulsifier system was added. The volatility test was carried out at 25° C. the operating time was 24 h. The sample size was 100 μl. […]

| SMILES | reduction of volatility of Clomazone by compound (B) | effect on volatility of clomazone in the composition (Test experiment 1, clomazone WP 100 g/ha, dimethenamid 500 g/ha, solvents 335 g/ha) | effect on volatility of clomazone in herbicidal compositions (Test experiment 2, clomazone 100 g/ha, dimethenamid or solvent 335 g/ha) |
| --- | --- | --- | --- |
| CCc1cccc(C)c1N(C(=O)CCl)C(C)COC (racemic) [Metolachlor, (RS)-2-ethyl-6-methyl-N-(1′-methyl-2′-methoxyethyl)-chloracetanilid] | support the claimed reduction of volatility of Clomazone |  |  |
| COCC(C)N(C(=O)CCl)c1c(C)csc1C (stereo not shown) [Dimethenamid, R,S-2-Chloro-N-(2,4-dimethyl-3-thienyl)-N-(2-methoxy-1-methylethyl)acetamide] |  | significantly reduces the volatility of clomazone | significantly reduce the volatility of clomazone |
| CCC(CC)Nc1c([N+](=O)[O-])cc(C)c(C)c1[N+](=O)[O-] [Pendimethalin, N-(1-ethylpropyl)-3,4-dimethyl-2,6-dinitrophenylamine] | support the claimed reduction of volatility of Clomazone |  |  |
